Measured values published in patent US20240409585A1, “MACROCYCLIC IMMUNOMODULATORS” (priority 2021, published 2024).
Numbered stars: 1 amine (or outer) side, 2 acyl side, 3 side chain; on linkers, the order of the positions; unused ones are H or OH. Bridge positions count the residues as written; N and C are the ends. Square brackets hold non-standard residues; d marks the D form. Peptide text beside a SMILES is read from it. * marks the point of attachment. ξ: configuration not given here. Bip(4'-COOH) = N[C@@H](Cc1ccc(-c2ccc(C(=O)O)cc2)cc1)C(=O)O; Bip(4'-NHAc) = CC(=O)Nc1ccc(-c2ccc(C[C@H](N)C(=O)O)cc2)cc1; X12 = O=C(NCc1cccc(C[C@H](N[*:1])C(=O)[*:2])c1)c1ccncc1; Phe(3-CF3) = N[C@@H](Cc1cccc(C(F)(F)F)c1)C(=O)O; Ala(morpholin-4-yl) = N[C@@H](CN1CCOCC1)C(=O)O; Phe(3-COOH) = N[C@@H](Cc1cccc(C(=O)O)c1)C(=O)O; Phe(4-CONH2) = NC(=O)c1ccc(C[C@H](N)C(=O)O)cc1; Phe(4-COOH) = N[C@@H](Cc1ccc(C(=O)O)cc1)C(=O)O; Bpa = N[C@@H](Cc1ccc(C(=O)c2ccccc2)cc1)C(=O)O; Bip = N[C@@H](Cc1ccc(-c2ccccc2)cc1)C(=O)O; Phe(3-F) = N[C@@H](Cc1cccc(F)c1)C(=O)O; Phe(3-I) = N[C@@H](Cc1cccc(I)c1)C(=O)O; Phe(3-Me) = Cc1cccc(C[C@H](N)C(=O)O)c1; Abu(3S-NH2) = C[C@H](N)[C@H](N)C(=O)O; Val(3-OH) = CC(C)(O)[C@H](N)C(=O)O; Cha = N[C@@H](CC1CCCCC1)C(=O)O; NTA = O=C(O)CN(CC(=O)O)CC(=O)*; Thr(3ξ) = CC(O)[C@H](N)C(=O)O; Carboxymethyl = O=C(O)C*; NMeA = CN[C@@H](C)C(=O)O; Nle = CCCC[C@H](N)C(=O)O; Orn = NCCC[C@H](N)C(=O)O; Dab = NCC[C@H](N)C(=O)O; ξC = NC(CS)C(=O)O

Key:
[1] = target: T1, PE-labeled human PD-L1-Ig binding to Jurkat cell line over-expressing human PD-1 (Jurkat-PD-1) (Homo sapiens, UniProt Q15116); test: Jurkat-PD-1 Cell Binding High-Content Screening Assay (CBA): Method 2 (presence and absence of tween-20); conditions: Jurkat-PD-1 cells, PE-labeled PD-L1-Ig 20 nM, presence or absence of tween-20 not given
T1 construct: expressed in transfected cells; host or cells: Jurkat
Method: Jurkat-PD-1 Cell Binding High-Content Screening Assay (CBA): Method 2
Phycoerythrin (PE) was covalently linked to the Ig epitope tag of human PD-L1-Ig and fluorescently labeled PD-L1-Ig was used for binding studies with a Jurkat cell line over-expressing human PD-1 (Jurkat-PD-1). […] 100 nl of compound was added to cells followed by incubation at 37° C. for 2 hours. To interrogate potential issues with compound aggregation, compounds were tested in the presence and absence of tween-20 detergent. […] Then, 5 μl of PE-labeled PD-L1-Ig (20 nM final), diluted in DMEM supplemented with 10% fetal calf serum. […] Data was collected and processed using a Cell Insight NXT High Content Imager and associated software.

[2] = target: T1, PE-labeled human PD-L1-Ig binding to Jurkat cell line over-expressing human PD-1 (Jurkat-PD-1); test: Jurkat-PD-1 Cell Binding High-Content Screening Assay (CBA): Method 1; conditions: Jurkat-PD-1 cells, PE-labeled PD-L1-Ig
[3] = head μM, read-out: CBA Method 2 μM

T1 sequence (Q15116 25-288): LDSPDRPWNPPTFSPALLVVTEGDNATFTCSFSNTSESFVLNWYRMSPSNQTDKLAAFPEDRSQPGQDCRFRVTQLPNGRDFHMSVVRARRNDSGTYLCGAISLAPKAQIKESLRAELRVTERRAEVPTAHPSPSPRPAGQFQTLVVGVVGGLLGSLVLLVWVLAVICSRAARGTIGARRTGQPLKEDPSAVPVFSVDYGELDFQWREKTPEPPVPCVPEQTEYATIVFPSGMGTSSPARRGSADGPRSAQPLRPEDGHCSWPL

SMILES	IC50 [1, 3] [µM]	IC50 ([2]; μM, read-out: CBA Method 1 μM) [µM]	IC50 ([1]; nM, read-out: CBA Method 2) [µM]	IC50 ([2]; nM, read-out: CBA Method 1) [µM]
Cc1cccc(C[C@@H]2NC(=O)[C@H](CC(=O)O)NC(=O)[C@H](Cc3ccc(OCC(=O)O)cc3)NC(=O)[C@H](CN3CCOCC3)NC(=O)CSCC(C(=O)N[C@@H](CCN)C(N)=O)NC(=O)[C@H](CCCN)NC(=O)[C@H](C(C)C)NC(=O)[C@H](CC3CCCCC3)NC(=O)[C@H](CCN)NC(=O)[C@@H](CC(C)C)NC(=O)[C@H](C)N(C)C(=O)[C@H](CCC(N)=O)NC(=O)[C@H](Cc3ccc(-c4ccccc4)cc3)NC(=O)[C@H](Cc3ccc(C(=O)c4ccccc4)cc3)NC2=O)c1 (stereo partly drawn) [Example 5031] ({CH2CO}-[Ala(morpholin-4-yl)]Y(Carboxymethyl)D[Phe(3-Me)][Bpa][Bip]Q[NMeA][dL][Dab][Cha]V[Orn][ξC][Dab]-NH2; thioether N-14)	0.0068	0.0087		
CC(C)C[C@@H]1NC(=O)[C@H](Cc2c[nH]c3ccccc23)NC(=O)[C@H](CC(N)=O)NC(=O)[C@H](Cc2cccc(C(=O)O)c2)NC(=O)[C@H](Cc2ccccc2)NC(=O)CSC[C@@H](C(=O)NCC(N)=O)NC(=O)[C@H](CO)NC(=O)[C@H](C(C)C)NC(=O)[C@H](CC(C)C)NC(=O)[C@H](CC(N)=O)NC(=O)[C@@H](CC(C)C)NC(=O)[C@H](C)N(C)C(=O)[C@H](C(C)C)NC(=O)[C@H](Cc2ccc(-c3ccccc3)cc2)NC1=O [Example 5026] ({CH2CO}-F[Phe(3-COOH)]NWL[Bip]V[NMeA][dL]NLVSCG-NH2; thioether N-14)	0.12	0.12		
CC(=O)Nc1ccc(-c2ccc(C[C@@H]3NC(=O)[C@H](Cc4cccc(C(F)(F)F)c4)NC(=O)[C@H](CC(=O)O)NC(=O)[C@H](Cc4ccc(C(=O)O)cc4)NC(=O)[C@H](CN4CCOCC4)NC(=O)CSC[C@@H](C(=O)N[C@@H](CCN)C(N)=O)NC(=O)[C@H](CCCN)NC(=O)[C@H](C(C)C)NC(=O)[C@H](CC4CCCCC4)NC(=O)[C@H](CCN)NC(=O)[C@@H](CC(C)C)NC(=O)[C@H](C)N(C)C(=O)[C@H](CCC(N)=O)NC(=O)[C@H](Cc4ccc(-c5ccccc5)cc4)NC3=O)cc2)cc1 [Example 5047] ({CH2CO}-[Ala(morpholin-4-yl)][Phe(4-COOH)]D[Phe(3-CF3)][Bip(4'-NHAc)][Bip]Q[NMeA][dL][Dab][Cha]V[Orn]C[Dab]-NH2; thioether N-14)	0.0041	0.0052		
CC(=O)Nc1ccc(-c2ccc(C[C@@H]3NC(=O)[C@H](Cc4cccc(C(F)(F)F)c4)NC(=O)[C@H](CC(=O)O)NC(=O)[C@H](Cc4ccc(C(=O)O)cc4)NC(=O)[C@H]([C@H](C)N)NC(=O)CSC[C@@H](C(=O)N[C@@H](CCN)C(N)=O)NC(=O)[C@H](CCCN)NC(=O)[C@H](C(C)C)NC(=O)[C@H](CC4CCCCC4)NC(=O)[C@H](CCN)NC(=O)[C@@H](CC(C)C)NC(=O)[C@H](C)N(C)C(=O)[C@H](CCC(N)=O)NC(=O)[C@H](Cc4ccc(-c5ccccc5)cc4)NC3=O)cc2)cc1 [Example 5050] ({CH2CO}-[Abu(3S-NH2)][Phe(4-COOH)]D[Phe(3-CF3)][Bip(4'-NHAc)][Bip]Q[NMeA][dL][Dab][Cha]V[Orn]C[Dab]-NH2; thioether N-14)	0.0059	0.0065		
CC(C)C[C@H]1NC(=O)[C@H](C)N(C)C(=O)[C@H](CCC(N)=O)NC(=O)[C@H](Cc2ccc(-c3ccccc3)cc2)NC(=O)[C@H](Cc2cccc(CNC(=O)c3ccncc3)c2)NC(=O)[C@H](Cc2cccc(I)c2)NC(=O)[C@H](CC(=O)O)NC(=O)[C@H](Cc2ccc(OCC(=O)O)cc2)NC(=O)[C@H](CN2CCOCC2)NC(=O)CSC[C@@H](C(=O)N[C@@H](CCN)C(N)=O)NC(=O)[C@H](CCCN)NC(=O)[C@H](C(C)C)NC(=O)[C@H](CC2CCCCC2)NC(=O)[C@H](CCN)NC1=O [Example 5020] ({CH2CO}-[Ala(morpholin-4-yl)]Y(Carboxymethyl)D[Phe(3-I)][X12][Bip]Q[NMeA][dL][Dab][Cha]V[Orn]C[Dab]-NH2; thioether N-14)			0.005	0.0058

More lines, now with the values ahead:

IC50 [1, 3] [µM]	IC50 ([2]; μM, read-out: CBA Method 1 μM) [µM]	IC50 ([1]; nM, read-out: CBA Method 2) [µM]	IC50 ([2]; nM, read-out: CBA Method 1) [µM]	SMILES
0.0267	0.0401			CCCC[C@@H]1NC(=O)CSC[C@@H](C(=O)N[C@@H](CCN)C(N)=O)NC(=O)[C@H](CCC(=O)O)NC(=O)[C@H](C(C)C)NC(=O)[C@H](CC2CCCCC2)NC(=O)[C@H](CCN)NC(=O)[C@@H](CC(C)C)NC(=O)[C@H](C)N(C)C(=O)[C@H](Cc2ccc(OCC(=O)O)cc2)NC(=O)[C@H](Cc2ccc(-c3ccccc3)cc2)NC(=O)[C@H](Cc2ccc(OCC(=O)O)cc2)NC(=O)[C@H](Cc2cccc(C(F)(F)F)c2)NC(=O)[C@H](CC(=O)O)NC(=O)[C@H](Cc2ccc(-c3ccc(C(=O)O)cc3)cc2)NC1=O [Example 5074] ({CH2CO}-[Nle][Bip(4'-COOH)]D[Phe(3-CF3)]Y(Carboxymethyl)[Bip]Y(Carboxymethyl)[NMeA][dL][Dab][Cha]VEC[Dab]-NH2; thioether N-14)
0.006	0.0077			CCCC[C@@H]1NC(=O)CSC[C@@H](C(=O)N[C@@H](CCN)C(N)=O)NC(=O)[C@H](CO)NC(=O)[C@H](C(C)(C)O)NC(=O)[C@H](CC2CCCCC2)NC(=O)[C@H](CCN)NC(=O)[C@@H](CC(C)C)NC(=O)[C@H](C)N(C)C(=O)[C@H](Cc2ccc(C(N)=O)cc2)NC(=O)[C@H](Cc2ccc(-c3ccccc3)cc2)NC(=O)[C@H](Cc2ccc(OCC(=O)O)cc2)NC(=O)[C@H](Cc2cccc(C)c2)NC(=O)[C@H](CC(=O)O)NC(=O)[C@H](Cc2ccc(OCC(=O)O)cc2)NC1=O [Example 5065] ({CH2CO}-[Nle]Y(Carboxymethyl)D[Phe(3-Me)]Y(Carboxymethyl)[Bip][Phe(4-CONH2)][NMeA][dL][Dab][Cha][Val(3-OH)]SC[Dab]-NH2; thioether N-14)
0.0044	0.0048			CC(=O)Nc1ccc(-c2ccc(C[C@@H]3NC(=O)[C@H](Cc4cccc(C)c4)NC(=O)[C@H](CC(=O)O)NC(=O)[C@H](Cc4ccc(C(=O)O)cc4)NC(=O)[C@H](CN4CCOCC4)NC(=O)CSC[C@@H](C(=O)N[C@@H](CCN)C(N)=O)NC(=O)[C@H](CCCN)NC(=O)[C@H](C(C)C)NC(=O)[C@H](CC4CCCCC4)NC(=O)[C@H](CCN)NC(=O)[C@@H](CC(C)C)NC(=O)[C@H](C)N(C)C(=O)[C@H](CCC(N)=O)NC(=O)[C@H](Cc4ccc(-c5ccccc5)cc4)NC3=O)cc2)cc1 [Example 5048] ({CH2CO}-[Ala(morpholin-4-yl)][Phe(4-COOH)]D[Phe(3-Me)][Bip(4'-NHAc)][Bip]Q[NMeA][dL][Dab][Cha]V[Orn]C[Dab]-NH2; thioether N-14)
0.0069	0.0072			Cc1cccc(C[C@@H]2NC(=O)[C@H](CC(=O)O)NC(=O)[C@H](Cc3ccc(OCC(=O)O)cc3)NC(=O)[C@H](C(C)O)NC(=O)CSC[C@@H](C(=O)N[C@@H](CCN)C(N)=O)NC(=O)[C@H](CO)NC(=O)[C@H](C(C)(C)O)NC(=O)[C@H](CC3CCCCC3)NC(=O)[C@H](CCN)NC(=O)[C@@H](CC(C)C)NC(=O)[C@H](C)N(C)C(=O)[C@H](Cc3ccc(C(N)=O)cc3)NC(=O)[C@H](Cc3ccc(-c4ccccc4)cc3)NC(=O)[C@H](Cc3ccc(OCC(=O)O)cc3)NC2=O)c1 (stereo partly drawn) [Example 5067] ({CH2CO}-[Thr(3ξ)]Y(Carboxymethyl)D[Phe(3-Me)]Y(Carboxymethyl)[Bip][Phe(4-CONH2)][NMeA][dL][Dab][Cha][Val(3-OH)]SC[Dab]-NH2; thioether N-14)
0.0348	0.0544			Cc1cccc(C[C@@H]2NC(=O)[C@H](CC(=O)O)NC(=O)[C@H](Cc3ccc(C(=O)O)cc3)NC(=O)[C@H](CC(C)C)NC(=O)CSC[C@@H](C(=O)N[C@@H](CCN)C(N)=O)NC(=O)[C@H](CCCN)NC(=O)[C@H](C(C)C)NC(=O)[C@H](Cc3cccc(F)c3)NC(=O)[C@H](CCN)NC(=O)[C@@H](CC(C)C)NC(=O)[C@H](C)N(C)C(=O)[C@H](CCC(N)=O)NC(=O)[C@H](Cc3ccc(-c4ccccc4)cc3)NC(=O)[C@H](Cc3ccc(-c4ccc(C(=O)O)cc4)cc3)NC2=O)c1 [Example 5064] ({CH2CO}-L[Phe(4-COOH)]D[Phe(3-Me)][Bip(4'-COOH)][Bip]Q[NMeA][dL][Dab][Phe(3-F)]V[Orn]C[Dab]-NH2; thioether N-14)
0.111	0.463			CC(C)C[C@H]1NC(=O)[C@H](C)N(C)C(=O)[C@H](CCC(N)=O)NC(=O)[C@H](Cc2ccc(-c3ccccc3)cc2)NC(=O)[C@H](Cc2ccc(C(=O)O)cc2)NC(=O)[C@H](Cc2cccc(C(F)(F)F)c2)NC(=O)[C@H](CCNC(=O)CN(CC(=O)O)CC(=O)O)NC(=O)[C@H](Cc2ccc(C(=O)O)cc2)NC(=O)[C@H](CN2CCOCC2)NC(=O)CSC[C@@H](C(=O)N[C@@H](CCN)C(N)=O)NC(=O)[C@H](CCCN)NC(=O)[C@H](C(C)C)NC(=O)[C@H](CC2CCCCC2)NC(=O)[C@H](CCN)NC1=O [Example 5076] ({CH2CO}-[Ala(morpholin-4-yl)][Phe(4-COOH)][Dab](NTA)[Phe(3-CF3)][Phe(4-COOH)][Bip]Q[NMeA][dL][Dab][Cha]V[Orn]C[Dab]-NH2; thioether N-14)
